Assay results from patent US11020457B2, “Compositions and methods for protecting the kidney from ischemia reperfusion injury” (University of Virginia Patent Foundation, priority 2013, dated 2021).
Entries after “also recorded” stand apart in the source; their conditions may differ.

Experiments:
[1] = test system: iron loaded bone marrow macrophages; conditions: hepcidin pretreatment; cited from earlier work
C57BL/6 mice [2] = assay: Renal IRI in WT mice: serum iron (ELISA), tissue non-heme iron, liver and serum hepcidin; assay type: in vivo
Protocol: (§1) All experiments were performed in accordance with the National Institutes of Health and Institutional Animal Care and Use Guidelines. The Animal Care and Use Committee of the University of Virginia approved all procedures and protocols. C57BL/6 mice from the Jackson Laboratory and hepcidin knockout mice (HAMP−/−), a kind gift from Dr Cindy Roy (John Hopkins University) were used in this study. All experiments were performed on 8-10 weeks old male mice. Kidney ischemia-reperfusion surgery was performed as previously reported (44). The core temperature of the mice was maintained between 34° C. and 36° C. using a heating pad. After anesthetizing the mice (ketamine, 12 mg/ml; atropine, 0.48 mg/ml; xylazine, 24 mg/ml; […] mixture administered per 20 g body weight), bilateral flank incisions were made, both renal pedicles were exposed, and cross-clamped for 26 minutes (severe I/R injury) or 24 minutes (mild I/R injury). After the determined ischemia, clamps were removed, and kidneys were allowed to reperfuse for 24 hours. Ambient postoperative air temperature was maintained between 30° C. and 32° C. until mice had fully recovered. Sham-operated animals underwent bilateral flank incisions without clamping of renal pedicles. Twenty-four hours later, mice were euthanized, and tissues were harvested.
Animals were divided into three groups, injected intraperitoneally with water and underwent IRI (IRI), injected intraperitoneally with 50-100 μg hepcidin at different time points prior to IRI (Hepcidin-IRI) or were sham operated (Sham). The experimental design is depicted in FIG. 2a.
Serum iron (Abcam), hepcidin (Intrinsic Lifescience) and IL-6 levels (eBioscience) were measured using commercial ELISA kits, as per manufacturers instructions.
Non-heme iron content in tissue was measured using the method described in published literature with slight modifications (60). Briefly, tissues were accurately weighed, finely cut and placed for 20 hours at 65° C. in a solution of 3M HCl/0.61 M trichloroacetic acid. After cooling to room temperature, the acid extract was spun at 12,000 rpm to collect the supernatant. 0.1 mL of the supernatant was incubated with chromogen solution (1.86 mM bathophenanthroline sulfonate/143 mM thioglycollic acid) for 20 minutes, and OD was measured at 535 nm. A standard curve was generated using an iron standard solution (Ricca Iron AA standard) against water as the blank. Non-heme iron content (μg/g) was calculated using the equation described (60).
For RNA isolation, frozen tissues were re-suspended in RLT buffer (Qiagen Inc, Valencia, Calif.) and homogenized using TissueLyser system (Qiagen Inc, Valencia, Calif.). Total RNA from tissue homogenate was purified using RNAeasy mini kit (Qiagen Inc, Valencia, Calif.) following manufacturers instructions. 1 μg of RNA was used to synthesize cDNA using the iScript cDNA synthesis kit (Bio-Rad). The cDNA template was mixed with iTAQ SYBR green universal super mix (Bio-Rad) and quantitative PCR was carried out on CFX Connect system (Bio-Rad). Predesigned primers for Caspase-3 and Bcl-2 were purchased from Bio-rad. Glyceraldehyde-3-phosphate dehydrogenase (GAPDH) was amplified in parallel and used as the reference gene in quantification. Data is expressed as the relative gene expression and was calculated using the 2 (−ρρC(T)) method.

C57BL/6 mice [3] = assay: Renal IRI in WT mice: splenic ferroportin (immunofluorescence) and splenic H-Ferritin (Western blot); assay type: in vivo; conditions: for splenic H-Ferritin: WT hepcidin IRI vs IRI and vs Sham, p<0.05, FIG. 9b
Protocol: as §1, with “harvested. […]” for “harvested.”
Snap frozen tissue sections were homogenized in Tris-Triton tissue lysis buffer containing complete protease inhibitor cocktail using a Dounce Homogenizer. […] H-Ferritin was measured in the whole kidney and spleen lysates. […] The primary antibodies were detected with Donkey anti-goat Alexa 800 and goat anti-rabbit Alexa 800 antibodies (LiCor Bioscience). Mouse monoclonal GAPDH and β-Actin (Abcam) were used as the loading controls and detected using Donkey anti Mouse Alexa 680 antibody (LiCor Bioscience). Quantitation of data was performed using densitometry software (Licor Bioscience).

C57BL/6 mice [4] = assay: Renal IRI in WT mice: flow cytometry of kidney immune cells; assay type: in vivo; conditions: hepcidin vs untreated IRI, p<0.005
Protocol: as §1, with “Ambient postoperative air temperature was maintained between 30° C. and 32° C. until mice had fully recovered. Sham-operated animals underwent bilateral flank incisions without clamping of renal pedicles. Twenty-four hours later, mice were euthanized, and tissues were harvested.” left out
Single-cell suspensions from the kidney were prepared using standard methods. […] Flow cytometry data were acquired using BD FACSCalibur (BD Biosciences, San Jose, Calif.) with Cytek eight-color flow cytometry upgrade (Cytek Development, Fremont, Calif.) and analyzed with FlowJo software 9.0 (Tree Star Inc., Ashland, Oreg.). […]

[5] = test system: hepcidin knockout mice (HAMP−/−); assay: Renal IRI in HAMP-/- mice: splenic ferroportin and splenic H-Ferritin; assay type: in vivo; conditions: for splenic H-Ferritin: HAMP-/- Hepcidin-IRI vs HAMP-/- IRI and vs Sham, p<0.005, FIG. 9c
Protocol: as §1
Snap frozen tissue sections were homogenized in Tris-Triton tissue lysis buffer containing complete protease inhibitor cocktail using a Dounce Homogenizer. Membrane fractions were isolated from the whole kidney lysate using membrane isolation kit (Thermo Pierce) to determine ferroportin expression. H-Ferritin was measured in the whole kidney and spleen lysates. […] The primary antibodies were detected with Donkey anti-goat Alexa 800 and goat anti-rabbit Alexa 800 antibodies (LiCor Bioscience). Mouse monoclonal GAPDH and β-Actin (Abcam) were used as the loading controls and detected using Donkey anti Mouse Alexa 680 antibody (LiCor Bioscience). Quantitation of data was performed using densitometry software (Licor Bioscience).

[6] = test system: folic acid induced acute kidney injury; assay: Folic acid induced acute kidney injury (data not shown); assay type: in vivo
splenocytes from WT mice = assay: Iron stimulation of splenocytes, IL-6 secretion by ELISA; assay type: cell-based; conditions: 1 μg/mL hepcidin for 4 hours, vs untreated splenocytes; FIG. 10c
Protocol: Splenocytes were harvested from 10-week-old B6 male mice. After excising the spleen, red blood cells were lysed and the remaining splenocytes were seeded at 1×10^6 cells/mL in 24-well tissue culture plates and cultured under 5% CO2 at 37° C. for 24 hours. The culture medium consisted of RPMI 1640 medium supplemented with 10% fetal calf serum (FCS), 100 U/mL penicillin, 100 μg/mL streptomycin, 1% non-essential amino acids (Gibco/Life Technologies, Foster, Calif., USA), 2 mM L-glutamine (Sigma), and 50/μM 2-mercaptoethanol. After resting for 24 hours, the cells were treated with 10 μM […] (FAC), 1 μg/mL hepcidin or saline for 4 hours. The cell culture supernatants were harvested and quantified for the levels of IL-6 by ELISA (eBioscience).

Mouse hepcidin 25 (DTNFPICIFCCKCCNNSQCGICCKT; listed as Mus musculus)
LPS-induced IL-6 and TNF alpha production [1]: reduced LPS-induced IL-6 and TNF alpha production | liver hepcidin gene expression (C57BL/6 mice [2]; hepcidin before IRI, IRI Vs. Hepcidin-IRI p<0.005, FIG. 1e): significantly prevented the IRI-induced upregulation of hepcidin | liver non-heme iron levels (C57BL/6 mice [2]; hepcidin before IRI, vs IRI p<0.0001): effectively prevented IRI-induced depletion of liver non-heme iron | splenic non-heme iron content (C57BL/6 mice [2]; hepcidin before IRI, vs IRI p<0.001, vs sham p<0.05): significantly higher splenic non-heme iron content than IRI or sham groups | kidney non-heme iron content (C57BL/6 mice [2]; hepcidin before IRI, vs IRI, p<0.05, FIG. 1b): significantly prevented IRI-induced kidney iron accumulation | serum iron levels (C57BL/6 mice [2]; hepcidin i.p. before IRI, vs untreated IRI, p<0.001, FIG. 1a): significantly reduced IRI-induced increase in serum iron levels | serum hepcidin levels (C57BL/6 mice [2]; hepcidin-treated IRI vs sham, FIG. 1f): not significantly different between hepcidin-treated and sham groups | splenic H-Ferritin (C57BL/6 mice [3]): increased splenic H-Ferritin levels | splenic H-Ferritin (C57BL/6 mice [3]; listed as hepcidin): significantly higher H-Ferritin compared to both untreated IRI mice and sham controls | splenic ferroportin expression (C57BL/6 mice [3]; hepcidin treatment, renal IRI, FIG. 9a bottom panel): dramatic decrease in surface expression of ferroportin; also recorded: degradation of ferroportin | frequency of kidney CD45+ cells (C57BL/6 mice [4]; FIG. 4b-c): reduced renal inflammatory cell infiltration by almost half | kidney neutrophils (C57BL/6 mice [4]; FIG. 4c): significantly reduced IRI-induced renal neutrophil inflammation | splenic H-Ferritin [5]: increased splenic H-Ferritin levels | splenic H-Ferritin ([5]; listed as hepcidin): significantly higher H-Ferritin compared to both untreated IRI mice and sham controls | splenic ferroportin expression ([5]; hepcidin reconstitution in HAMP-/- mice, renal IRI): lower ferroportin expression than sham-operated mice | protection against folic acid induced acute kidney injury [6]: protective against folic acid induced acute kidney injury | IL-6 secretion into supernatants (splenocytes from WT mice): no significant difference in IL-6 levels
